Test results as given in ChEMBL document CHEMBL3885881, “DrugMatrix”.

Species on record: Rattus norvegicus
Assay: DrugMatrix - Regimen: Daily Repeat
Type: toxicity, organism-based, Sprague-Dawley
Design: regimen Daily Repeat, gender Male, age 6-8 weeks
Details: in vivo, po, route oral GAVAGE, vehicle .5 % CMC; for ABSOLUTE BASOPHIL / ABSOLUTE EOSINOPHIL / ABSOLUTE LYMPHOCYTE / ABSOLUTE MONOCYTE / ABSOLUTE SEGMENTED NEUTROPHIL / BASOPHIL / EOSINOPHIL / ERYTHROCYTE COUNT / HEMATOCRIT / HEMOGLOBIN / LEUKOCYTE COUNT / LYMPHOCYTE / MEAN CORPUSCULAR HEMOGLOBIN / MEAN CORPUSCULAR HEMOGLOBIN CONCENTRATION / MEAN CORPUSCULAR VOLUME / MONOCYTE / NEUTROPHIL / NUCLEATED RED BLOOD CELLS / PLATELET COUNT: tissue Blood; for ALANINE AMINOTRANSFERASE / ALBUMIN / ALKALINE PHOSPHATASE / ASPARTATE AMINOTRANSFERASE / BLOOD UREA NITROGEN / CARBON DIOXIDE / CHLORIDE / CHOLESTEROL / CREATINE PHOSPHOKINASE / CREATININE / GLUCOSE / LACTATE DEHYDROGENASE / LIPASE / PHOSPHORUS / POTASSIUM / SODIUM / TOTAL BILIRUBIN / TOTAL PROTEIN / URIC ACID: tissue Plasma
[1] = 5 mg/kg, 72 h, dose level Low, time 3 day
[2] = 5 mg/kg, 120 h, dose level Low, time 5 day
[3] = 26 mg/kg, 72 h, dose level High, time 3 day
[4] = 26 mg/kg, 120 h, dose level High, time 5 day

With `Nc1nnc(-c2cccc(Cl)c2Cl)c(N)n1` [LAMOTRIGINE] the “ABSOLUTE BASOPHIL” value [1] was 0 CELLS/uL, the “ABSOLUTE EOSINOPHIL” value [1] was 0 CELLS/uL and the “ABSOLUTE LYMPHOCYTE” value [1] was 10899.33 CELLS/uL. The “ABSOLUTE MONOCYTE” value [1] was 45.33 CELLS/uL, the “ABSOLUTE SEGMENTED NEUTROPHIL” value [1] was 922 CELLS/uL and the BASOPHIL [1] was 0%. The EOSINOPHIL [1] was 0%, the “ERYTHROCYTE COUNT” value [1] was 5.73 x10E6/uL and the HEMATOCRIT [1] was 35.93%. For the same compound, the HEMOGLOBIN [1] was 13.53 G/DL, the “LEUKOCYTE COUNT” value [1] was 11.87 x10E3/uL and the LYMPHOCYTE [1] was 91.67%. For the same compound, the “MEAN CORPUSCULAR HEMOGLOBIN” value [1] was 23.7 pg, the “MEAN CORPUSCULAR HEMOGLOBIN CONCENTRATION” value [1] was 37.7 G/DL and the “MEAN CORPUSCULAR VOLUME” value [1] was 62.83 fL. For the same compound, the MONOCYTE [1] was 0.33%, the NEUTROPHIL [1] was 8% and the “NUCLEATED RED BLOOD CELLS” value [1] was 0.33 /100WBC. The “PLATELET COUNT” value [1] was 1386.33 x10E3/uL, the “ALANINE AMINOTRANSFERASE” value [1] was 59 u/L and the ALBUMIN [1] was 4.23 G/DL. The “ALKALINE PHOSPHATASE” value [1] was 377.33 u/L, the “ASPARTATE AMINOTRANSFERASE” value [1] was 90.67 u/L and the “BLOOD UREA NITROGEN” value [1] was 15 mg/dL. The “CARBON DIOXIDE” value [1] was 25.67 mmol/L, the CHLORIDE [1] was 103.33 MEQ/L and the CHOLESTEROL [1] was 73.33 mg/dL. For the same compound, the “CREATINE PHOSPHOKINASE” value [1] was 322.33 u/L, the CREATININE [1] was 0.43 mg/dL and the GLUCOSE [1] was 152 mg/dL. For the same compound, the “LACTATE DEHYDROGENASE” value [1] was 339.67 u/L, the LIPASE [1] was 10.33 u/L and the PHOSPHORUS [1] was 13.67 mg/dL. The POTASSIUM [1] was 6.72 MEQ/L, the SODIUM [1] was 145.9 MEQ/L and the “TOTAL BILIRUBIN” value [1] was 0.2 mg/dL. For the same compound, the “TOTAL PROTEIN” value [1] was 5.77 G/DL, the “URIC ACID” value [1] was 1.6 mg/dL and the “ABSOLUTE BASOPHIL” value [2] was 0 CELLS/uL. For the same compound, the “ABSOLUTE EOSINOPHIL” value [2] was 56.33 CELLS/uL, the “ABSOLUTE LYMPHOCYTE” value [2] was 12053 CELLS/uL and the “ABSOLUTE MONOCYTE” value [2] was 415 CELLS/uL. For the same compound, the “ABSOLUTE SEGMENTED NEUTROPHIL” value [2] was 1309 CELLS/uL, the BASOPHIL [2] was 0% and the EOSINOPHIL [2] was 0.33%. For the same compound, the “ERYTHROCYTE COUNT” value [2] was 5.33 x10E6/uL, the HEMATOCRIT [2] was 35.73% and the HEMOGLOBIN [2] was 13.3 G/DL. The “LEUKOCYTE COUNT” value [2] was 13.83 x10E3/uL, the LYMPHOCYTE [2] was 87% and the “MEAN CORPUSCULAR HEMOGLOBIN” value [2] was 25 pg. The “MEAN CORPUSCULAR HEMOGLOBIN CONCENTRATION” value [2] was 37.23 G/DL, the “MEAN CORPUSCULAR VOLUME” value [2] was 67.17 fL and the MONOCYTE [2] was 3%. The NEUTROPHIL [2] was 9.67%, the “NUCLEATED RED BLOOD CELLS” value [2] was 0 /100WBC and the “PLATELET COUNT” value [2] was 1207 x10E3/uL. For the same compound, the “ALANINE AMINOTRANSFERASE” value [2] was 54.33 u/L, the ALBUMIN [2] was 4.4 G/DL and the “ALKALINE PHOSPHATASE” value [2] was 422.67 u/L. The “ASPARTATE AMINOTRANSFERASE” value [2] was 86.33 u/L, the “BLOOD UREA NITROGEN” value [2] was 16.67 mg/dL and the “CARBON DIOXIDE” value [2] was 23 mmol/L. For the same compound, the CHLORIDE [2] was 104 MEQ/L, the CHOLESTEROL [2] was 71.67 mg/dL and the “CREATINE PHOSPHOKINASE” value [2] was 218.33 u/L. For the same compound, the CREATININE [2] was 0.41 mg/dL, the GLUCOSE [2] was 152.67 mg/dL and the “LACTATE DEHYDROGENASE” value [2] was 99.67 u/L. For the same compound, the LIPASE [2] was 10.33 u/L, the PHOSPHORUS [2] was 12.27 mg/dL and the POTASSIUM [2] was 6.44 MEQ/L. The SODIUM [2] was 149.03 MEQ/L, the “TOTAL BILIRUBIN” value [2] was 0.17 mg/dL and the “TOTAL PROTEIN” value [2] was 6.17 G/DL. For the same compound, the “URIC ACID” value [2] was 1.8 mg/dL, the “ABSOLUTE BASOPHIL” value [3] was 0 CELLS/uL and the “ABSOLUTE EOSINOPHIL” value [3] was 0 CELLS/uL. The “ABSOLUTE LYMPHOCYTE” value [3] was 13769 CELLS/uL, the “ABSOLUTE MONOCYTE” value [3] was 39.33 CELLS/uL and the “ABSOLUTE SEGMENTED NEUTROPHIL” value [3] was 558.33 CELLS/uL. The BASOPHIL [3] was 0%, the EOSINOPHIL [3] was 0% and the “ERYTHROCYTE COUNT” value [3] was 5.86 x10E6/uL. For the same compound, the HEMATOCRIT [3] was 39.23%, the HEMOGLOBIN [3] was 14.47 G/DL and the “LEUKOCYTE COUNT” value [3] was 14.37 x10E3/uL. The LYMPHOCYTE [3] was 95.67%, the “MEAN CORPUSCULAR HEMOGLOBIN” value [3] was 24.67 pg and the “MEAN CORPUSCULAR HEMOGLOBIN CONCENTRATION” value [3] was 36.9 G/DL. The “MEAN CORPUSCULAR VOLUME” value [3] was 66.93 fL, the MONOCYTE [3] was 0.33% and the NEUTROPHIL [3] was 4%. For the same compound, the “NUCLEATED RED BLOOD CELLS” value [3] was 0.33 /100WBC, the “PLATELET COUNT” value [3] was 1200 x10E3/uL and the “ALANINE AMINOTRANSFERASE” value [3] was 73 u/L. The ALBUMIN [3] was 4.6 G/DL, the “ALKALINE PHOSPHATASE” value [3] was 355.33 u/L and the “ASPARTATE AMINOTRANSFERASE” value [3] was 139.67 u/L. For the same compound, the “BLOOD UREA NITROGEN” value [3] was 13 mg/dL, the “CARBON DIOXIDE” value [3] was 24.67 mmol/L and the CHLORIDE [3] was 102 MEQ/L. For the same compound, the CHOLESTEROL [3] was 91 mg/dL, the “CREATINE PHOSPHOKINASE” value [3] was 1448.33 u/L and the CREATININE [3] was 0.29 mg/dL. For the same compound, the GLUCOSE [3] was 138 mg/dL, the “LACTATE DEHYDROGENASE” value [3] was 373.67 u/L and the LIPASE [3] was 10.33 u/L. It also gave a PHOSPHORUS [3] of 13.67 mg/dL, a POTASSIUM [3] of 7.33 MEQ/L and an SODIUM [3] of 146.47 MEQ/L. For the same compound, the “TOTAL BILIRUBIN” value [3] was 0.2 mg/dL, the “TOTAL PROTEIN” value [3] was 6.5 G/DL and the “URIC ACID” value [3] was 3 mg/dL. For the same compound, the “ABSOLUTE BASOPHIL” value [4] was 0 CELLS/uL, the “ABSOLUTE EOSINOPHIL” value [4] was 0 CELLS/uL and the “ABSOLUTE LYMPHOCYTE” value [4] was 13660 CELLS/uL. For the same compound, the “ABSOLUTE MONOCYTE” value [4] was 181.67 CELLS/uL, the “ABSOLUTE SEGMENTED NEUTROPHIL” value [4] was 558.33 CELLS/uL and the BASOPHIL [4] was 0%. For the same compound, the EOSINOPHIL [4] was 0%, the “ERYTHROCYTE COUNT” value [4] was 5.81 x10E6/uL and the HEMATOCRIT [4] was 37.13%. The HEMOGLOBIN [4] was 14.03 G/DL, the “LEUKOCYTE COUNT” value [4] was 14.4 x10E3/uL and the LYMPHOCYTE [4] was 95%. The “MEAN CORPUSCULAR HEMOGLOBIN” value [4] was 24.17 pg, the “MEAN CORPUSCULAR HEMOGLOBIN CONCENTRATION” value [4] was 37.8 G/DL and the “MEAN CORPUSCULAR VOLUME” value [4] was 63.93 fL. The MONOCYTE [4] was 1.33%, the NEUTROPHIL [4] was 3.67% and the “NUCLEATED RED BLOOD CELLS” value [4] was 0.33 /100WBC. For the same compound, the “PLATELET COUNT” value [4] was 1279.33 x10E3/uL, the “ALANINE AMINOTRANSFERASE” value [4] was 64.67 u/L and the ALBUMIN [4] was 4.4 G/DL. The “ALKALINE PHOSPHATASE” value [4] was 331.33 u/L, the “ASPARTATE AMINOTRANSFERASE” value [4] was 78 u/L and the “BLOOD UREA NITROGEN” value [4] was 18.67 mg/dL. The “CARBON DIOXIDE” value [4] was 27.67 mmol/L, the CHLORIDE [4] was 103 MEQ/L and the CHOLESTEROL [4] was 75.67 mg/dL. The “CREATINE PHOSPHOKINASE” value [4] was 225 u/L, the CREATININE [4] was 0.28 mg/dL and the GLUCOSE [4] was 163 mg/dL. For the same compound, the “LACTATE DEHYDROGENASE” value [4] was 110.33 u/L, the LIPASE [4] was 10.67 u/L and the PHOSPHORUS [4] was 12.43 mg/dL. For the same compound, the POTASSIUM [4] was 7.41 MEQ/L, the SODIUM [4] was 147.97 MEQ/L and the “TOTAL BILIRUBIN” value [4] was 0.2 mg/dL. For the same compound, the “TOTAL PROTEIN” value [4] was 6.2 G/DL and the “URIC ACID” value [4] was 2.03 mg/dL.
